Source: patent US20110207726A1, “Inhibitors of Human Cathepsin L, Cathepsin B, and Cathepsin S” (The Trustees of the University of Pennsylvania, priority 2008, published 2011)
Like-named read-outs stand apart in the source and are kept apart here.

Key:
Plasmodium falciparum = assay: Malaria assay, in vitro propagation; assay type: cell-based; conditions: read-out: IC50 against Plasmodium falciparum
Description: Eight two-fold serial dilutions of Compound No. 1 in RPMI 1640 media (Invitrogen 1 1 875) containing L-Glutamine, 50 mg/L hypoxanthine, 6 g/L HEPES, 0.5% Albumax 11 bovine serum (Invitrogen 11021), 0.225% sodium bicarbonate, and 1 pgIrnL gentamicin were performed in Corning 3704 microplates. […] In addition, 30 μL normal red blood cells and 30 μL infected red blood cells were added to two control columns containing 10 μL media. The plates were incubated at 37° C. in a 92% humidity chamber with 5% CO2, 5% O2, and 90% N2 for 48 hours to allow for two cycles of red blood cell rupture and invasion to take place. Forty μL BrightGlo™ (Promega E2610) were added to each well and centrifuged. After 5 minutes, luminescence was measured using the Envision microplate reader.

human cathepsin L [1] = target: T1, human cathepsin L (Homo sapiens, UniProt P07711); assay: Nonlinear regression of transient kinetics (data fitting)
[2] = target: T2, Human neutrophil cathepsin G (Homo sapiens, UniProt P08311); assay: Selectivity assay, cathepsin G; assay type: biochemical; conditions: for IC50: Cathepsin G, no preincubation
T2 construct: Human neutrophil cathepsin G (Calbiochem 219373, 4.2 μg/mL); purchased Calbiochem 219373; host or cells: human neutrophils
T2 sequence (P08311 21-243 limits assumed): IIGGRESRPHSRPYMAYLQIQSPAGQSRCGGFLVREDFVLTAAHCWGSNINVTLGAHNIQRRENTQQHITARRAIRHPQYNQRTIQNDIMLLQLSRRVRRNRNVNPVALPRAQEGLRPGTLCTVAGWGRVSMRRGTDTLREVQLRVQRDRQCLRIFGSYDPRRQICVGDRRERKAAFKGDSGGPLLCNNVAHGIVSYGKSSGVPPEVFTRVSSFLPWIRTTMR
Description: (§1) Compound No. 1 was assayed for inhibition against papain and cathepsins B, G, K, S, and V. Papain from Carica papaya (Calbiochem 5125, 11 ng/mL), human cathepsin K (Calbiochem 342001, 35 ng/mL), human spleen cathepsin S (Calbiochem 219344, 40 ng/mL), and human cathepsin V (Calbiochem 219467, 39 ng/ml) were assayed using Z-Phe-Arg-AMC substrate at 20 μM, 20 μM, 15 μM, and 1 μM, respectively. Human liver cathepsin B (Calbiochem 219362, 65 ng/mL) was assayed using 15 μM Z-Arg-Arg-AMC substrate (Bachem I-1135). Human neutrophil cathepsin G (Calbiochem 219373, 4.2 μg/mL) was assayed using 15 μM Suc-Ala-Ala-Pro-Phe-AMC substrate (Sigma S9761). All reactions were performed in 20 mM sodium acetate buffer containing 5 mM cysteine and 1 mM EDTA, pH 5.5. Reaction progress was monitored using the Envision microplate reader. IC50 values were measured in triplicate.

[3] = test system: Leishmania major promastigotes; assay: Leishmaniasis assay; assay type: cell-based; conditions: read-out: IC50 against Leishmania major promastigotes
Description: Five thousand Leishmania major promastigotes were plated per well in a 384-well microtiter plate in a 20 μL volume of promastigote growth medium. Promastigotes were treated with a concentration range from 0 μM to 50 μM of Compound No. 1 for 44 hrs. Five pL Cell-Titer-Blue™ were added per well and incubated for 4 hrs. Relative fluorescence units (A560/A590) were captured on a SpectraMax M5 microtiter plate reader. DMSO concentrations were held constant at 0.5%.

[4] = target: T3, Papain from Carica papaya (Carica papaya, UniProt P00784); assay: Selectivity assay, papain; assay type: biochemical; conditions: for IC50: Papain, no preincubation
T3 construct: Papain from Carica papaya (Calbiochem 5125, 11 ng/mL); purchased Calbiochem 5125; host or cells: Carica papaya
Description: as §1

human cathepsin L [5] = target: T1, human cathepsin L; assay: Reversibility, preincubation/dilution assay; assay type: biochemical; design: 8.7 ng/mL human liver cathepsin L (Calbiochem 219402); purchased Calbiochem 219402; host or cells: human liver
Description: This mixture was then diluted 100-fold in a Corning 3650 96-well plate with assay buffer containing 1 μM Z-Phe-Arg-AMC to a final volume of 200 μL. A rapidly reversible inhibitor should dissociate from the enzyme to restore approximately >90% of enzymatic activity. Fluorescence intensities of the 200 μL reaction wells were monitored continuously for AMC hydrolysis on the Envision plate reader.
The mechanism of inhibition, to determine whether the compound acted as a rapidly reversible, slowly reversible, or irreversible inhibitor, was evaluated using a preincubation/dilution assay (Copeland, 2005, Evaluation of Enzyme Inhibitors in Drug Discovery: A Guide for Medicinal Chemists and Pharmacologists, J. Wiley, Hoboken, N.J.). […] After 8820 s, the rate of product formation for the 4 hour preincubated reaction was 4.7 times greater than the initial rate of product formation, showing that the inhibitor was being released from the enzyme-inhibitor complex and enzymatic activity was indeed recovering.

human cathepsin V = target: T4, human cathepsin V (Homo sapiens, UniProt O60911); assay: Selectivity assay, cathepsin V; assay type: biochemical
T4 construct: purchased Calbiochem 219467
Description: as §1

zebrafish = assay: Zebrafish live organism toxicity assay; conditions: at 100 μM
[6] = 30 min, read-out: IC50 @ 30 min
[7] = 60 min, read-out: IC50 @ 60 min
[8] = 90 min, read-out: IC50 @ 90 min

T4 sequence (O60911 114-334): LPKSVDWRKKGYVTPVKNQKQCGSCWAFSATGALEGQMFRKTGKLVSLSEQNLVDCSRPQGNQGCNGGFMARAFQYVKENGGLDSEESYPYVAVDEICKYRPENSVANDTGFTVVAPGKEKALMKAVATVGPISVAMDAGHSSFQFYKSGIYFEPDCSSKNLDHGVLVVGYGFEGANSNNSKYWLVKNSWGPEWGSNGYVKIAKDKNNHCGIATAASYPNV
T1 sequence (P07711 114-288 limits assumed): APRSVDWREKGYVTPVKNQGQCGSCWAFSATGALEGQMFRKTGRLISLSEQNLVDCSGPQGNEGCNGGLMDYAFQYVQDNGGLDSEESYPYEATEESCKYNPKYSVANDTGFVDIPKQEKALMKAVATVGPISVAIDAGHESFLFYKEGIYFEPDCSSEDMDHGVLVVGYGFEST
T1 sequence (P07711 292-333 limits assumed): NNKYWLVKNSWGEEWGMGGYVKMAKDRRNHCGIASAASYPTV
T3 sequence (P00784 134-345): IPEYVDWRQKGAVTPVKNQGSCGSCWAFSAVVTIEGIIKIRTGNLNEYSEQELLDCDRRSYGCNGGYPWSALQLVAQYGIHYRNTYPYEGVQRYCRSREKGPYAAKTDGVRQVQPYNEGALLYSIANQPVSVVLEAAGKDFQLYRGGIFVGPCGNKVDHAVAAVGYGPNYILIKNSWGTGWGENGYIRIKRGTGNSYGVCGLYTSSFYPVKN

CCc1ccccc1NC(=O)CSC(=O)NNC(=O)[C@H](Cc1c[nH]c2ccccc12)NC(=O)OC(C)(C)C [Compound No. 1]
IC50 (Plasmodium falciparum): 15.4 ± 0.6 µM | Ki (human cathepsin L [1]): 0.89 nM | koff (human cathepsin L [1]): 2.2e-05 s⁻¹ | kon (human cathepsin L [1]): 24000 M⁻¹ s⁻¹ | inhibitory activity against cathepsin G (in words) [2]: no inhibitory activity | IC50 ([2]; human neutrophil, 10 min): > 50 µM | IC50 [2, 6]: > 50 µM | IC50 [2, 7]: > 50 µM | IC50 [2, 8]: > 50 µM | IC50 [3]: 12.5 ± 0.6 µM | IC50 ([4]; IC50 @ 10 min, Carica papaya, 10 min): 6760 ± 367 nM | Selectivity Index @ 10 min ([4]; Papain vs cathepsin L, 10 min): 44 | Selectivity Index @ 30 min ([4]; Papain vs cathepsin L, 30 min): 40 | Selectivity Index @ 60 min ([4]; Papain vs cathepsin L, 60 min): 46 | Selectivity Index @ 90 min ([4]; Papain vs cathepsin L, 90 min): 31 | Selectivity Index ([4]; Papain vs cathepsin L, over 10-90 min): 31-46 | IC50 [4, 6]: 2980 ± 282 nM | IC50 [4, 7]: 2600 ± 208 nM | IC50 [4, 8]: 1560 ± 314 nM | enzymatic activity returned after 100-fold dilution (human cathepsin L [5]; 1 hour preincubation at 75 nM, 6000 s into the reaction): approximately 11% | rate of product formation relative to initial rate (human cathepsin L [5]; 4 hour preincubated reaction, after 8820 s): 4.7 times | reaction inhibited immediately after addition of substrate (human cathepsin L [5]; 4 hr preincubated enzyme-inhibitor): 99.8% | mechanism of inhibition (reversibility) (human cathepsin L [5]; preincubation/dilution assay): very slowly reversible inhibitor | IC50 (human cathepsin V): 1010 ± 142 nM | Selectivity Index @ 10 min (human cathepsin V; Cathepsin V vs cathepsin L, 10 min): 7 | Selectivity Index @ 30 min (human cathepsin V; Cathepsin V vs cathepsin L, 30 min): 9 | Selectivity Index @ 60 min (human cathepsin V; Cathepsin V vs cathepsin L, 60 min): 11 | Selectivity Index @ 90 min (human cathepsin V; Cathepsin V vs cathepsin L, 90 min): 11 | Selectivity Index (human cathepsin V; Cathepsin V vs cathepsin L, over 10-90 min): 7-11 | IC50 (human cathepsin V; Cathepsin V, no preincubation, 30 min, read-out: IC50 @ 30 min): 688 ± 39 nM | IC50 (human cathepsin V; Cathepsin V, no preincubation, 60 min, read-out: IC50 @ 60 min): 618 ± 35 nM | IC50 (human cathepsin V; Cathepsin V, no preincubation, 90 min, read-out: IC50 @ 90 min): 576 ± 24 nM | toxicity to zebrafish (zebrafish): lack of toxicity
